Measurements: the supplement of paper PMC10627819

Assays:
[1] = tested on: B. subtilis 168; experiment: fitness (endpoint OD595 vs no drug) (fraction); higher = more growth
Summary of the method: (§1)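 Fitness expresses the optical density reached at the stationary-phase transition as a fraction of the robust mean of no-drug control wells. It is capped at 1. Measurements were OD595 every 30 min for 14 h at 37 °C after inoculation of 384-well plates at OD595 0.01 (30 µl, or 55 µl for S. pneumoniae), minus the first reading.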

[2] = tested on: S. aureus Newman; experiment: as above
Summary of the method: as §1

[3] = tested on: S. pneumoniae D39V; experiment: as above
Summary of the method: as §1

[4] = tested on: B. subtilis 168; experiment: Bliss interaction score (quartile over a dose matrix) (fitness difference); higher = more antagonism (negative = synergy)
Summary of the method: (§2)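 Each OD595 reading at entry into stationary phase was scaled to the robust mean of the untreated wells on its plate, with a ceiling of 1. These ratios define fitness, and single-drug fitness was inferred from combinations. The Bliss score compares observed fitness with the product-based expectation and is reported as quartiles across all replicate types, technical, biological and donor/recipient.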

[5] = tested on: S. aureus DSM 20231; experiment: as above
Summary of the method: as §2

[6] = tested on: S. aureus Newman; experiment: as above
Summary of the method: as §2

[7] = tested on: S. pneumoniae D39V; experiment: as above
Summary of the method: as §2
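For Bliss interaction score (quartile over a dose matrix) in this document: first quartile when negative (synergy) and third quartile when positive (antagonism).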
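For fitness (endpoint OD595 vs no drug) in this document: OD595 on entry to stationary phase over no-drug wells; at most 1.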

CC1=C(C(=O)O)N2C(=O)[C@@H](NC(=O)[C@H](N)c3ccccc3)[C@H]2SC1 [Cephalexin] + C[n+]1ccc(-c2cc[n+](C)cc2)cc1 [Paraquat]
fitness
Settings	first compound 0.125 µg/mL	first compound 0.25 µg/mL	first compound 0.5 µg/mL	first compound 1 µg/mL
[1], partner 1.25 µg/mL	0.908	0.892	0.924	–
[1], partner 2.5 µg/mL	0.937	0.912	0.902	–
[1], partner 5 µg/mL	0.815	0.795	0.851	–
[2], partner 1.25 µg/mL	–	0.986	0.874	0.874
[2], partner 2.5 µg/mL	–	0.996	≥ 1	0.918
[2], partner 5 µg/mL	–	0.982	0.963	≥ 1

fitness, [3], one replicate
Settings	first compound 0.125 µg/mL	first compound 0.25 µg/mL	first compound 0.5 µg/mL	first compound 1 µg/mL	first compound 2 µg/mL	first compound 4 µg/mL
partner 1.5 µg/mL	0.999	0.982	0.998	0.828	0.21	0.0243
partner 3 µg/mL	0.909	0.913	0.928	0.865	0.286	0.0238
partner 6 µg/mL	0.896	0.897	0.9	0.861	0.328	0.0875

Settings	Bliss interaction score
[4]	0.0473
[5]	0.0584
[6]	0.0521
[7]	0.135

CC1=C(C(=O)O)N2C(=O)[C@@H](NC(=O)[C@H](N)c3ccccc3)[C@H]2SC1 [Cephalexin] + Cc1onc(-c2ccccc2)c1C(=O)N[C@@H]1C(=O)N2[C@@H]1SC(C)(C)[C@@H]2C(=O)O [Oxacillin]
Settings	fitness
[1], first compound 0.125 µg/mL, partner 0.002 µg/mL	0.975
[1], first compound 0.125 µg/mL, partner 0.004 µg/mL	0.879
[1], first compound 0.125 µg/mL, partner 0.008 µg/mL	0.896
[1], first compound 0.25 µg/mL, partner 0.002 µg/mL	0.911
[1], first compound 0.25 µg/mL, partner 0.004 µg/mL	0.948
[1], first compound 0.25 µg/mL, partner 0.008 µg/mL	0.879
[1], first compound 0.5 µg/mL, partner 0.002 µg/mL	0.925
[1], first compound 0.5 µg/mL, partner 0.004 µg/mL	0.961
[1], first compound 0.5 µg/mL, partner 0.008 µg/mL	0.97
[2], first compound 0.25 µg/mL, partner 0.0156 µg/mL	0.803
[2], first compound 0.25 µg/mL, partner 0.0312 µg/mL	0.761
[2], first compound 0.25 µg/mL, partner 0.0625 µg/mL	0.727
[2], first compound 0.5 µg/mL, partner 0.0156 µg/mL	0.768
[2], first compound 0.5 µg/mL, partner 0.0312 µg/mL	0.749
[2], first compound 0.5 µg/mL, partner 0.0625 µg/mL	0.675
[2], first compound 1 µg/mL, partner 0.0156 µg/mL	0.721
[2], first compound 1 µg/mL, partner 0.0312 µg/mL	0.72
[2], first compound 1 µg/mL, partner 0.0625 µg/mL	0.651
[3], first compound 1 µg/mL, partner 0.02 µg/mL	0.171
[3], first compound 1 µg/mL, partner 0.04 µg/mL	0.0188
[3], first compound 2 µg/mL, partner 0.01 µg/mL	0.1
[3], first compound 2 µg/mL, partner 0.02 µg/mL	0.044
[3], first compound 2 µg/mL, partner 0.04 µg/mL	0.0313
[3], first compound 4 µg/mL, partner 0.01 µg/mL	0.0222
[3], first compound 4 µg/mL, partner 0.02 µg/mL	0.0259
[3], first compound 4 µg/mL, partner 0.04 µg/mL	0.0275

fitness, one replicate
Settings	first compound 0.125 µg/mL	first compound 0.25 µg/mL	first compound 0.5 µg/mL	first compound 1 µg/mL
[1], partner 0.075 µg/mL	–	0.65	0.551	0.563
[1], partner 0.15 µg/mL	–	0.0401	0.0556	0.0643
[1], partner 0.3 µg/mL	–	0.0429	0.0316	0.051
[3], partner 0.01 µg/mL	≥ 1	0.989	0.99	–
[3], partner 0.02 µg/mL	0.92	0.897	0.886	–
[3], partner 0.04 µg/mL	0.175	0.196	0.124	–

Settings	Bliss interaction score
[4]	0.0457
[5]	0.0592
[6]	0.0632
[7]	-0.216
